Tests used:
Format in all cases: functional
[1] = test system: Empoasca fabae; assay: Insecticidal activity against Empoasca fabae (potato leafhopper) at 600 g ai/ha
[2] = test system: Myzus persicae; assay: Insecticidal activity against Myzus persicae (green peach aphid) at 600 g ai/ha
[3] = test system: Phytophthora infestans; assay: Fungicidal activity against tomato late blight disease-causing Phytophthora infestans at 375 g ai/ha
[4] = test system: Myzus persicae; assay: Insecticidal activity against Myzus persicae (green peach aphid) at 300 g ai/ha
[5] = test system: Empoasca fabae; assay: Insecticidal activity against Empoasca fabae (potato leafhopper) at 300 g ai/ha
[6] = test system: Phytophthora infestans; assay: Fungicidal activity against tomato late blight disease-causing Phytophthora infestans at 300 g ai/ha

Compound | Activity [1] | Activity [2] | Activity [3] | Activity [4] | Activity [5] | Activity [6]
COC(=O)c1sc(C)nc1-c1ccc(OC)c(OC)c1 | 40% | 0% | 0% |  |  | 
COc1ccc(-c2nc(C)sc2C(=O)O)cc1OC | 20% | 0% | 0% |  |  | 
COc1ccc(-c2nc(C)sc2C(=O)N2CCOCC2)cc1OC | 20% | 20% | 90% |  |  | 
CCN(C)C(=O)c1sc(C)nc1-c1ccc(OC)c(OC)c1 | 40% | 40% | 0% |  |  | 
COc1ccc(-c2nc(C)sc2C(=O)N(C)OC)cc1OC | 20% | 20% | 50% |  |  | 
COc1ccc(-c2nc(C)sc2C(=O)NCC#N)cc1OC | 0% | 0% | 0% |  |  | 
CCN(CC)C(=O)c1sc(C)nc1-c1ccc(OC)c(OC)c1 | 40% | 0% | 0% |  |  | 
COc1ccc(-c2nc(C)sc2C(=O)NCCCn2ccnc2)cc1OC | 0% | 0% | 75% |  |  | 
C#CC(C)(C)NC(=O)c1sc(C)nc1-c1ccc(OC)c(OC)c1 | 40% | 60% | 0% |  |  | 
C#CC(C)(CC)NC(=O)c1sc(C)nc1-c1ccc(OC)c(OC)c1 (stereo not drawn) | 0% | 20% | 90% |  |  | 
COc1ccc(-c2nc(C)sc2C(=O)Nc2ccccc2)cc1OC | 40% | 20% | 0% |  |  | 
COc1ccc(-c2nc(C)sc2C(N)=O)cc1OC | 20% | 0% | 0% |  |  | 
C#CCOC(=O)c1sc(C)nc1-c1ccc(OC)c(OC)c1 | 20% | 20% | 0% |  |  | 
COc1ccc(-c2nc(C)sc2C(=O)OCC(C)C)cc1OC | 20% | 20% | 75% |  |  | 
COc1ccc(C(=CC(=O)N2CCOCC2)c2ccc(Cl)cc2)cc1OC [DIMETHOMORPH] |  |  |  | 0% | 0% | 100%
COc1ccc(/C(=C\C(=O)N2CCOCC2)c2ccc(F)cc2)cc1OC [FLUMORPH] |  |  |  | 0% | 0% | 100%
